Experimental data as given in US6846637B1, “Fas peptides and antibodies for modulating apoptosis” (IMED AB, priority 1998, dated 2005).

Legend:
[1] = tested on: antibodies in human sera of healthy blood donors; assay: ELISA reactivity of human serum to Fas peptides; type: binding; settings: for Reactivity to Fas peptides in ELISA, Human serum: O.D. 490 nm classes; for reactivity with human sera: sera of 30 healthy blood donors, in words
From the text: The derived amino acid sequence (a.a.1-179) of the Fas protein (Itoh et al., 1991) was used for simultaneous multiple solid-phase peptide synthesis (Houghten et al, 1985) of 20 amino acid long peptides (with a 10-residue overlap).

[2] = tested on: immunoglobulin preparations derived from pooled human serum (Gammagard); assay: ELISA reactivity of immunoglobulin preparations (Gammagard) to Fas peptides; type: binding; settings: O.D. 490 nm classes
Experimental: Similar experiments were performed with commercially available immunoglobulin preparations derived from pooled human serum enriched by immunosorbence for immunoglobulin fractions (Gammagard-Baxter, Hyland, Glendale, Calif. USA).

Jurkat leukemia T cells = assay: TUNEL assay of apoptosis of Jurkat cells on immobilized anti-Fas peptide antibodies; type: cell-based, human; settings: immobilized antibody, 48 h, TUNEL/FACS; control well 18%
Experimental: The antibody-concentrations were anti-Fp5 (10 μg/ml), anti-Fp11 (10 μg/ml) and anti-Fpl7 (40 μg/ml). Cells were collected after 48 h incubation, and the fragmented DNA of apoptotic cells was assessed by Apoptosis Detection System, Fluorescein (Promega, Madison, Wis.) based on TdT-mediated dUTP Nick-End Labeling (TUNEL) assay and FACS analysis (CellQuest software, Becton Dickinson) according to manufacturer's instructions. For apoptosis inhibition experiments, Jurkat cell culture medium was supplemented with 200 ng/ml of recombinant Fas-Fc chimera (R&D Systems Europe Ltd, Abingdon, UK). Inhibition of CH-11-mediated apoptosis was performed as described in Fadeel et al., 1997. Data are presented as the mean value of four independent experiments, and the standard error of mean is indicated by the error bars.
Ability to mediate apoptosis and inhibition of proliferation was determined using antibodies immobilized to plastic surface.

[3] = target: Fas peptide Fp11 (Glu100-Cys119) (human); assay: peptide ELISA; legend: +++ > 1.0 O.D.
[4] = target: Fas peptide Fp17 (Trp160-Val179) (human); assay: peptide ELISA; legend: + = <0.5 O.D. 490 nm
[5] = target: Fas peptide Fp5 (Gly40-Val59) (human); assay: peptide ELISA; legend: + = <0.5 O.D. 490 nm
[6] = tested on: PHA-stimulated T cell blasts; assay: Proliferation of PHA-stimulated T-cell blasts (Alamar Blue); type: cell-based, human; settings: anti-CD3 alone
Experimental: PBMC were stimulated with phytohemagglutinin (PHA) ([…]) (Pharmacia Biotech, Sweden) for 48 hours. […] After 48 hours incubation, the proliferation was assessed by Alamar Blue Assay (Biosource International, USA.) and the results were expressed as percent difference in reduction of (fluorometric/colorometric) REDOX indicator between antibody coated and control (without antibodies) wells according to manufacturer's instructions (AMS Biotechnology AB, Sweden).

Fas peptide Fp11 (Glu100-Cys119) (human), sequence (peptide, as listed by the source): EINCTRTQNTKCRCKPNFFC

| Substance | Reactivity to Fas peptides in ELISA, Human serum [1] | reactivity with human sera [1] | Reactivity to Fas peptides in ELISA, Immunoglobulin preparations (Gammagard) [2] | also measured |
| --- | --- | --- | --- | --- |
| GQFCHKPCPPGERKARDCTV [Fp5] | ++ (++ = <1.0 O.D.) | reactive | + (+ = <0.5 O.D. 490 nm) | apoptosis induced in Jurkat leukemia cells (Jurkat leukemia T cells): 25% |
| HFSSKCRRCRLCDEGHGLEV [Fp9] | – | – | ++ (++ = <1.0 O.D.) | – |
| Immunoglobulin preparations (Gammagard) (antibody) | – | – | – | O.D. 490 nm [3]: > 1 od; O.D. 490 nm [4]: < 0.5 od; O.D. 490 nm [5]: < 0.5 od |
| KCRCKPNFFCNSTVCEHCDP [Fp12] | ++ (++ = <1.0 O.D.) | – | ++ (++ = <1.0 O.D.) | – |
| KEEGSRSNLGWLCLLLLPIP [Fp16] | – | low or no reactivity | + (+ = <0.5 O.D. 490 nm) | – |
| LIVWVKRKEVQKTCRKHRKE [Fp18] | – | – | +++ (+++ > 1.0 O.D.) | – |
| QEGKEYTDKAHFSSKCRRCR [Fp8] | – | – | +++ (+++ > 1.0 O.D.) | – |
| WLCLLLLPIPLIVWVKRKEV [Fp17] | +++ (+++ > 1.0 O.D.) | reactive | + (+ = <0.5 O.D. 490 nm) | serum titers against peptide ([1]; 30 healthy donors, comparison of Fp5, Fp11, Fp17): lowest mean titers |
| anti-CD3: purified anti-CD3 monoclonal antibody (OKT-3, 10 μg/ml) | – | – | – | reduction of proliferation [6]: 12% |
